Measured values taken from US20030170890A1, “Pathologically modified myocardial cell, production and use thereof” (priority 1999, published 2003).
No end group written: not given here.

Key:
Format in all cases: cell-based
[1] = test system: neonatal rat cardiomyocytes; experiment: Stimulation of isolated neonatal rat cardiomyocytes, recruitment of DCMAG-1 into the sarcomere (immunofluorescence); details: for Sarcomere (recruitment of DCMAG-1), 1 × stimulation: 48 hours; for DCMAG-1 stain pattern of stimulated cells (in words): immunofluorescence, anti-DCMAG-1 antibody
From the text: Primary cardiomyocytes were isolated from neonatal rats to carry out a hypertrophy experiment. The rats were from one to seven days old and were sacrificed by cervical dislocation. To isolate the cardiomyocytes, the ventricles of the contracting hearts were removed and dissociated using the “Neonatal Cardiomyocyte Isolation System” (Worthington Biochemicals Corporation, Lakewood, N.J.). […] The next day, the trypsin treatment was stopped by adding a trypsin inhibitor, and then a collagenase treatment was carried out at 37° C. for 45 minutes. The cells were dissociated by pipetting, passed through a “cell strainer” (70 μm) and centrifuged at 60×g twice for 5 min. The cell pellet was then taken up in 20 ml of conventional adhesion medium. Seeding took place at a density of 6×10^4 cells/cm^2 on gelatin-coated (Sigma, Deisenhofen) tissue culture dishes or cover glasses. The next morning, the medium was removed by aspiration and, after washing with DMEM (conventional cell culture medium) twice, replaced by cultivation medium.
The cells were stimulated two to six hours after the medium was changed. This was done by treating the cardiomyocytes with various stimulants or combinations of stimulants (see Table 1) for 48 hours, followed by analysis. It was possible to observe the progress of a single stimulation on the basis of the morphological changes in the cells (hypertrophy). Besides the morphological changes, immunofluorescence analyses were also used to determine hypertrophy parameters (DCMAG-1 recruitment).
For the immunofluorescence analysis, the stimulated cardiomyocytes were washed twice with cold PBS and fixed with 3% paraformaldehyde solution in PBS for 20 minutes. After washing again with cold PBS, the cells were incubated twice with 100 mM ammonium chloride in PBS, for 10 min each time, at room temperature. This was followed by a further washing step with cold PBS and incubation with 0.2% Triton-X 100 in PBS at room temperature for 5 min. Washing twice with 0.1% gelatin in PBS was followed by incubation with the first antibody at 37° C. in a “humidity chamber” known to the skilled worker. The first antibody (against the second domain of DCMAG-1) was diluted 1/500 in incubation solution (0.5% Tween-20; 0.5% BSA; in PBS). This was followed after one hour by three washing steps with PBS at room temperature for 5 min each time. The second antibody (obtained from goat, directed against rabbit, Cy3-coupled; Dianova, Hamburg) was diluted 1/200 in incubation solution and likewise incubated with the fixed cells at 37° C. for one hour. After three further washing steps with PBS at room temperature for 5 min each time, and a brief immersion in deionized water, the preparations were covered with a layer of Histosafe (Linaris, Wertheim-Bettingen) and applied to slides. Evaluation took place under a microscope (Axiovert 100S, Cy3 filter set, Zeiss, Göttingen).
Thus, for quantitative evaluation of these stimulation experiments, the recruitment of DCMAG-1 into the sarcomere was measured and categorized as follows: […]

[2] = test system: cardiomyocytes from the neonatal rat; experiment: Effect of inhibitors on DCMAG-1 translocation in the immunofluorescence test; details: cells stimulated with LIF; for % dotted pattern / % filamentous pattern / % in Z-bands: ISO and ET-1 (single dosage) 48 h, without or with 30 μM LY294002, 50 μM SB 203580, 15 nM Go 6976, 50 μM PD98059, ±SEM; for effect on translocation of DCMAG-1 into the sarcomere (in words): ISO and ET-1
Protocol: Neonatal rat cardiomyocytes were prepared as in Example 3 and seeded in a density of 1×10^5 cells per 1.5 cm well (reaction chamber in a cell culture dish). The cell culture dishes contained 1.5 cm cover glasses (Schubert und Weiβ) coated with 1% gelatin solution. The cells were incubated after 24 hours with DMEM and subsequently in maintenance medium with or without stimulus (LIF/ISO and ET-1, concentration as above for single dosage) for 48 hours.
In order to determine the signal transduction pathways required for translocation of DCMAG-1, the stimulated cells were incubated with inhibitors, namely 30 μM LY294002 (Sigma), 50 μM SB 203580 (Sigma), 15 nM Go 6976 (Alexis) or 50 μM PD98059 (NEB) for 48 h (after 24 h, the medium and inhibitors were renewed because the activity of the inhibitors was limited to 24 h in aqueous solution).
After 48 h, the cells were fixed with 4% paraformaldehyde, permeabilized with 0.2% Triton-X100 and stained with anti-DCMAG (polyclonal, own production, 1:500) or α-actinin (as control, Sigma, 1:500) and visualized with anti-mouse or anti-rabbit Cy3 (Jackson Labs, USA) in immunofluorescence. In order to measure the effect of the inhibitors, the cells were visually classified and counted.

Rat cardiomyocytes = experiment: Localization of DCMAG-1 after PMA or triple stimulation (colocalization with α-actinin / MHC); details: double staining with α-actinin or MHC
Protocol: Since PMA brings about translocation of DCMAG-1 into the sarcomeres just like activation of three signal transduction pathways via their receptors, the sarcomeric structures into which DCMAG-1 was translocated with PMA or triple stimulation was investigated. Colocalization experiments were carried out for this purpose. Rat cardiomyocytes were seeded as described above on cover glasses, and correspondingly stimulated, fixed and stained. With the stains, anti-DCMAG-1 antibody (polyclonal) was mixed with either monoclonal α-actinin (Sigma, 1:500) or monoclonal anti-myosin (heavy chain, MHC, Sigma, 1:500). The secondary antibodies used were FITC-anti-mouse (1:250) and Texas Red-anti-rabbit (1:50; both from Dianova).
Evaluation took place with the aid of a fluorescence microscope, a Fuji-CCD camera and Aida software or with the aid of a confocal microscope (Pascal from Zeiss) and LSM software (Zeiss).

[3] = test system: neonatal rat cardiomyocytes; experiment: Stimulation of neonatal cardiomyocytes by phorbol ester, DCMAG-1 localization visually classified and counted; details: for % dotted pattern / % filamentous pattern / % in the sarcomere: 48 hours, ±SEM
Protocol: In these experiments, the cardiomyocytes were prepared as described above and seeded onto cover glasses. Stimulation with various concentrations of PMA was carried out for 48 hours, and the cells were fixed, stained as described above and investigated for DCMAG-1 translocation. The cells were visually classified and counted.

[4] = single dosage: PE 100 μM, LIF 1 ng/ml, ET-1 10 nM, ISO 10 μM, IN 100 nM

| Compound | Sarcomere (recruitment of DCMAG-1), 1 × stimulation ([1]; 2 × single dosage) | Sarcomere (recruitment of DCMAG-1), 1 × stimulation ([1]; 3 × single dosage) | Sarcomere (recruitment of DCMAG-1), 1 × stimulation ([1]; 4 × single dosage) | Sarcomere (recruitment of DCMAG-1), 1 × stimulation [1, 4] | % dotted pattern [2] [%] | % filamentous pattern [2] [%] | % in Z-bands [2] [%] | DCMAG-1 stain pattern of stimulated cells (in words) [1] | other results |
| --- | --- | --- | --- | --- | --- | --- | --- | --- | --- |
| CC(C)NCC(O)c1ccc(O)c(O)c1 (stereo not drawn) [ISO, isoproterenol] | (−) (fewer than 2 cells per cover glass) | (+) (2 to 5 cells per cover glass) | (+) (2 to 5 cells per cover glass) | (−) (fewer than 2 cells per cover glass) |  |  |  |  | Sarcomere (recruitment of DCMAG-1), 1 × stimulation ([1]; 5 × single dosage): (+) (2 to 5 cells per cover glass); recruitment of DCMAG-1 into the sarcomere (in words, summary of Table 1) ([1]; ISO: high concentrations): slight effect |
| O=c1cc(N2CCOCC2)oc2c(-c3ccccc3)cccc12 [LY, LY294002] |  |  |  |  | 46.6 ± 5.3 | 41.2 ± 4.1 | 11.3 ± 2.0 |  |  |
| CCCCCCCCCCCCCC(=O)O[C@@H]1[C@@H](C)[C@@]2(O)[C@@H](C=C(CO)C[C@]3(O)C(=O)C(C)=C[C@@H]23)[C@@H]2C(C)(C)[C@]12OC(C)=O [PMA, phorbol myristate acetate] |  |  |  |  |  |  |  |  | sarcomeric structure into which DCMAG-1 is translocated (Rat cardiomyocytes): translocates into the M-line; translocation of DCMAG-1 protein (in words) ([3]; 1 nM PMA): translocated into the sarcomere; % dotted pattern ([3]; 1 nM PMA): 46.0 ± 2.0%; % filamentous pattern ([3]; 1 nM PMA): 20.0 ± 1.0%; % in the sarcomere ([3]; 1 nM PMA): 34.0 ± 3.0%; % dotted pattern ([3]; 100 nM PMA): 47.0 ± 4.0%; % filamentous pattern ([3]; 100 nM PMA): 13.0 ± 2.0%; % in the sarcomere ([3]; 100 nM PMA): 40.0 ± 2.0% |
| LIF: cytokine acting via the LIF receptor, assigned to the interleukin-6 family | (−) (fewer than 2 cells per cover glass) |  |  | (−) (fewer than 2 cells per cover glass) |  |  |  | distributed uniformly over the sarcoplasm | shape of stimulated cells ([1]; single stimulation): elongate shape |
| C[S+]([O-])c1ccc(-c2nc(-c3ccncc3)c(-c3ccc(F)cc3)[nH]2)cc1 (stereo not drawn) [SB, SB 203580] |  |  |  |  | 22.5 ± 5.3 | 35.5 ± 0.3 | 41.0 ± 4.9 |  |  |
| Cn1c2ccccc2c2c3c(c4c5ccccc5n(CCC#N)c4c21)CNC3=O [Gö, Gö 6976] |  |  |  |  | 29.0 ± 2.1 | 49.0 ± 0.0 | 22.0 ± 2.1 |  | effect on translocation of DCMAG-1 into the sarcomere (in words) [2]: reducing the translocation |
| CNC[C@H](O)c1cccc(O)c1 [PE, phenylephrine] | (−) (fewer than 2 cells per cover glass) | (−) (fewer than 2 cells per cover glass) | (−) (fewer than 2 cells per cover glass) | (−) (fewer than 2 cells per cover glass) |  |  |  | distributed uniformly over the sarcoplasm | Sarcomere (recruitment of DCMAG-1), 1 × stimulation ([1]; 5 × single dosage): (−) (fewer than 2 cells per cover glass) |
| insulin | (−) (fewer than 2 cells per cover glass) |  |  | (−) (fewer than 2 cells per cover glass) |  |  |  |  |  |
| COc1cccc(-c2cc(=O)c3ccccc3o2)c1N [PD, PD98059] |  |  |  |  | 58.5 ± 10.7 | 31.6 ± 7.4 | 10.1 ± 3.4 |  | effect on translocation of DCMAG-1 into the sarcomere (in words) [2]: reducing the translocation |
| ET-1: hormone / signal molecule stimulating the ETA and ETB endothelin receptors (CSCSSLMDKECVYFCHLDIIW; not fully specified (bridges); ends and bridges not checked; UniProt P05305 53-73, looked up) | (−) (fewer than 2 cells per cover glass) | (−) (fewer than 2 cells per cover glass) | (−) (fewer than 2 cells per cover glass) | (−) (fewer than 2 cells per cover glass) |  |  |  | filamentous structures |  |
